Measured values from ChEMBL document CHEMBL2331417, “Kinetic and anion inhibition studies of a β-carbonic anhydrase (FbiCA 1) from the C4 plant Flaveria bidentis” (Bioorg Med Chem Lett, 2013).
pKi: −log10 of the molar value.

How the values were obtained:
[1] = Inhibition of Flaveria bidentis beta-carbonic anhydrase-1 preincubated for 15 mins by stopped flow CO2 hydration assay
[2] = Inhibition of Helicobacter pylori beta-carbonic anhydrase preincubated for 15 mins by stopped flow CO2 hydration assay

Row | SMILES | pKi [1] | pKi [2]
2 | CCN(CC)C(=S)S [DITIOCARB SODIUM] | 5.10 | 5.13
3 | O=[As](O)(O)c1ccccc1 [PHENYLARSONIC ACID] | 5.22 | –
4 | OB(O)c1ccccc1 [PHENYLBORONIC ACID] | 5.10 | 4.14
5 | [N-]=[N+]=[N-] [SODIUM AZIDE] | 3.34 | 3.10
6 | O=C([O-])O.[Na+] [SODIUM BICARBONATE] | 3.18 | –
7 | O=S([O-])O.[Na+] [SODIUM BISULFITE] | 1.26 | 3.20
8 | [Br-].[Na+] [SODIUM BROMIDE] | 3.17 | 3.42
9 | O=C([O-])[O-].[Na+].[Na+] [SODIUM CARBONATE] | 3.08 | 3.38
10 | S=C(S)S [SODIUM CARBONOTRITHIOATE] | 4.22 | 3.68
11 | [Cl-].[Na+] [SODIUM CHLORIDE] | 3.13 | 3.25
12 | [F-].[Na+] [SODIUM FLUORIDE] | 3.15 | 3.17
13 | S [SODIUM HYDROSULFIDE] | 3.07 | 3.24
14 | O=S(=O)(O)ONOS(=O)(=O)O [SODIUM IMINODISULFATE] | 1.29 | 3.15
15 | [I-].[Na+] [SODIUM IODIDE] | 3.15 | 3.20
16 | N=C=[Se] [SODIUM ISOSELENOCYANATE] | 3.06 | 3.01
17 | N=C=S [SODIUM ISOTHIOCYANATE] | 3.08 | 3.17
18 | O=[N+]([O-])[O-].[Na+] [SODIUM NITRATE] | 3.11 | 3.11
19 | O=NO [SODIUM NITRITE] | 3.24 | 3.17
20 | [O-][Cl+3]([O-])([O-])O [SODIUM PERCHLORATE] | < 0.70 | 2.19
21 | O=S(=O)(O)OOS(=O)(=O)O [SODIUM PERSULFATE] | 3.06 | 3.03
22 | O=P(O)(O)OP(=O)(O)O [SODIUM PYROPHOSPHATE] | 3.08 | 3.12
23 | O=[Se](=O)(O)O [SODIUM SELENATE] | 1.61 | 3.19
24 | O=S(=O)([O-])[O-].[Na+].[Na+] [SODIUM SULFATE ANHYDROUS] | 3.21 | 3.24
25 | O=[Te](=O)(O)O [SODIUM TELLURATE] | 3.05 | 3.35
26 | O=BOB(O)OB(O)OB=O [SODIUM TETRABORATE] | 3.07 | 3.17
27 | F[B-](F)(F)F.[Na+] [SODIUM TETRAFLUOROBORATE] | < 0.70 | < 0.70
28 | NS(=O)(=O)O [SULFAMATE] | 5.30 | 4.03
29 | NS(N)(=O)=O [SULFAMIDE] | 5.40 | 4.14
